Experimental data reported in ChEMBL document CHEMBL1201862, “PubChem BioAssay data set” (2004).
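Interpolation was linear, between the two tested concentrations surrounding the appropriate level; five concentrations were tested over 48 hours in 96-well plates. GI50 = concentration required for 50% inhibition of growth.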 The source made the active and inactive calls. Cut-off read from the data, not from the text of the source: active = GI50 up to about 1.1 µM and inactive = higher.

Key:
Test in all cases: growth of human tumour cells (NCI), 48 h
K562 = tested on: K562
UACC-257 = tested on: UACC-257
OVCAR-4 = tested on: OVCAR-4
SK-MEL-5 = tested on: SK-MEL-5
HCT-15 = tested on: HCT-15
OVCAR-8 = tested on: OVCAR-8
SNB-19 = tested on: SNB-19
IGROV-1 = tested on: IGROV-1
OVCAR-5 = tested on: OVCAR-5
SN12C = tested on: SN12C
SR = tested on: SR
SNB-78 = tested on: SNB-78
COLO 205 = tested on: COLO 205
SNB-75 = tested on: SNB-75
MOLT-4 = tested on: MOLT-4
ACHN = tested on: ACHN
DMS-114 = tested on: DMS-114
NCI-H226 = tested on: NCI-H226
LXFL 529 = tested on: LXFL 529
SW-620 = tested on: SW-620
U-251 = tested on: U-251
SK-OV-3 = tested on: SK-OV-3
NCI-H23 = tested on: NCI-H23
SF-295 = tested on: SF-295
SK-MEL-28 = tested on: SK-MEL-28
DMS-273 = tested on: DMS-273
HOP-18 = tested on: HOP-18
DLD-1 = tested on: DLD-1
SF-539 = tested on: SF-539
HL-60 = tested on: HL-60
SF-268 = tested on: SF-268
A549 = tested on: A549
TK-10 = tested on: TK-10
UO-31 = tested on: UO-31
EKVX = tested on: EKVX
CCRF-CEM = tested on: CCRF-CEM
LOX IMVI = tested on: LOX IMVI
NCI-H522 = tested on: NCI-H522
Malme-3M = tested on: Malme-3M
HCC 2998 = tested on: HCC 2998
SK-MEL-2 = tested on: SK-MEL-2
XF498 = tested on: XF498
M19-MEL = tested on: M19-MEL
RXF 393 = tested on: RXF 393
HOP-62 = tested on: HOP-62
KM-20L2 = tested on: KM-20L2
HT-29 = tested on: HT-29
786-0 = tested on: 786-0
M14 = tested on: M14
KM12 = tested on: KM12
HOP-92 = tested on: HOP-92
RXF 631 = tested on: RXF 631
HCT-116 = tested on: HCT-116
OVCAR-3 = tested on: OVCAR-3
NCI-H460 = tested on: NCI-H460
A498 = tested on: A498
RPMI-8226 = tested on: RPMI-8226
CAKI-1 = tested on: CAKI-1
UACC-62 = tested on: UACC-62

Measured: GI50

C/C=C1\CN2CCc3c([nH]c4ccccc34)C2CC1CCO (stereo not drawn)
inactive: K562 > 100 µM | UACC-257 > 100 µM | OVCAR-4 > 100 µM | SK-MEL-5 > 100 µM | OVCAR-8 > 100 µM | SNB-19 > 100 µM | IGROV-1 > 100 µM | OVCAR-5 > 100 µM | SN12C > 100 µM | SR > 100 µM | SNB-78 > 100 µM | COLO 205 > 100 µM | SNB-75 28.8 µM | MOLT-4 > 100 µM | ACHN > 100 µM | DMS-114 > 100 µM | NCI-H226 > 100 µM | LXFL 529 > 100 µM | SW-620 > 100 µM | U-251 > 100 µM | SK-OV-3 > 100 µM | NCI-H23 > 100 µM | SF-295 > 100 µM | SK-MEL-28 > 100 µM | DMS-273 > 100 µM | HOP-18 > 100 µM | DLD-1 > 100 µM | SF-539 > 100 µM | HL-60 > 100 µM | SF-268 > 100 µM | A549 > 100 µM | TK-10 > 100 µM | UO-31 74.8 µM | EKVX > 100 µM | CCRF-CEM > 100 µM | LOX IMVI > 100 µM | NCI-H522 > 100 µM | Malme-3M > 100 µM | HCC 2998 > 100 µM | SK-MEL-2 > 100 µM | XF498 > 100 µM | M19-MEL > 100 µM | RXF 393 > 100 µM | HOP-62 > 100 µM | KM-20L2 > 100 µM | HT-29 > 100 µM | 786-0 > 100 µM | M14 > 100 µM | KM12 > 100 µM | HOP-92 48 µM | RXF 631 > 100 µM | HCT-116 > 100 µM | OVCAR-3 > 100 µM | NCI-H460 > 100 µM | A498 > 100 µM
> 100 µM: HCT-15

Cn1c(=O)c(C(c2ccc([N+](=O)[O-])cc2)c2c(O)c3ccccc3n(C)c2=O)cc2ccccc21 (stereo not drawn)
45.8 µM: HCT-15
inactive: K562 > 100 µM | UACC-257 20.5 µM | OVCAR-4 41.1 µM | SK-MEL-5 51.3 µM | OVCAR-8 > 100 µM | SNB-19 40.3 µM | IGROV-1 42.3 µM | OVCAR-5 28.4 µM | SN12C 57.7 µM | SR 39.4 µM | SNB-78 43.2 µM | COLO 205 32.7 µM | SNB-75 23 µM | MOLT-4 41.7 µM | ACHN 57.8 µM | DMS-114 56.2 µM | NCI-H226 13.4 µM | LXFL 529 42.2 µM | SW-620 > 100 µM | U-251 18.2 µM | SK-OV-3 60.1 µM | NCI-H23 32.6 µM | SF-295 39.3 µM | SK-MEL-28 48.1 µM | DMS-273 37.2 µM | HOP-18 42.5 µM | DLD-1 36.8 µM | SF-539 43.6 µM | HL-60 36.1 µM | SF-268 53.1 µM | A549 93.5 µM | TK-10 29.9 µM | RPMI-8226 41.8 µM | UO-31 35.2 µM | EKVX 41.7 µM | LOX IMVI 35.2 µM | NCI-H522 20 µM | Malme-3M 26.7 µM | HCC 2998 > 100 µM | CAKI-1 47.8 µM | SK-MEL-2 59.6 µM | XF498 55.3 µM | M19-MEL 35.5 µM | RXF 393 26.4 µM | HOP-62 27.7 µM | KM-20L2 45 µM | HT-29 44.8 µM | 786-0 54.6 µM | M14 37.8 µM | KM12 75.2 µM | HOP-92 53.1 µM | RXF 631 49.9 µM | HCT-116 44.2 µM | OVCAR-3 55.3 µM | UACC-62 19.2 µM | NCI-H460 > 100 µM
